In ChEMBL document CHEMBL1949602, “Bacterial biofilm formation inhibitory activity revealed for plant derived natural compounds” (Bioorg Med Chem, 2012):
Values after ≈ are worked out from the molar mass of the structure shown. Active and inactive are the calls of the source. The calls are words filed in the database; no cut-off is given here.

What was measured:
[1] = test system: Staphylococcus epidermidis; assay: Antibacterial activity against Staphylococcus epidermidis ATCC 35984 assessed as modification of bacterial surface protein pattern at 14 uM by zymographic analysis; format: functional, organism-based
Staphylococcus aureus [2] = assay: Antibacterial activity against Staphylococcus aureus ATCC 6538P by broth microdilution method; format: functional
[3] = test system: Staphylococcus epidermidis; assay: Antibacterial activity against Staphylococcus epidermidis ATCC 35984 by broth microdilution method; format: functional
[4] = test system: Staphylococcus epidermidis; assay: Antibacterial activity against Staphylococcus epidermidis ATCC 35984 incubated in drug free medium for 18 hrs after MIC determination by broth microdilution method; format: functional; settings: ATCC 35984, 18 h
Staphylococcus aureus [5] = assay: Antibacterial activity against Staphylococcus aureus ATCC 6538P assessed as inhibition of biofilm formation after 24 hrs by crystal violet staining; format: functional, organism-based
Staphylococcus aureus [6] = assay: Antibacterial activity against Staphylococcus aureus ATCC 6538P assessed as inhibition of planktonic growth at sub-MIC measured up to 25 hrs; format: functional, organism-based
Staphylococcus aureus [7] = assay: Antibacterial activity against Staphylococcus aureus ATCC 6538P assessed as change in bacterial surface protein level at sub-MIC by SDS-PAGE analysis; format: functional, organism-based
[8] = test system: Staphylococcus epidermidis; assay: Antibacterial activity against Staphylococcus epidermidis ATCC 35984 assessed as inhibition of planktonic growth at sub-MIC measured up to 25 hrs; format: functional, organism-based
[9] = test system: Staphylococcus epidermidis; assay: Antibacterial activity against Staphylococcus epidermidis ATCC 35984 assessed as inhibition of biofilm formation after 24 hrs by crystal violet staining; format: functional, organism-based; settings: ATCC 35984, 24 h
Staphylococcus aureus [10] = assay: Antibacterial activity against Staphylococcus aureus ATCC 6538P assessed as change in bacterial surface protein level at sub-MIC by zymographic analysis; format: functional, organism-based
Staphylococcus aureus [11] = assay: Antibacterial activity against Staphylococcus aureus ATCC 6538P incubated in drug free medium for 18 hrs after MIC determination by broth microdilution method; format: functional
[12] = test system: Staphylococcus epidermidis; assay: Antibacterial activity against Staphylococcus epidermidis ATCC 35984 assessed as modification of bacterial surface protein pattern at 4 uM by zymographic analysis; format: functional, organism-based
[13] = test system: Staphylococcus epidermidis; assay: Antibacterial activity against Staphylococcus epidermidis ATCC 35984 assessed as disappearance of bacterial surface protein level at sub-MIC by SDS-PAGE analysis; format: functional, organism-based
[14] = test system: Staphylococcus epidermidis; assay: Antibacterial activity against Staphylococcus epidermidis ATCC 35984 assessed as disappearance of bacterial surface proteins level at sub-MIC by zymographic analysis; format: functional, organism-based
[15] = test system: Staphylococcus epidermidis; assay: Antibacterial activity against Staphylococcus epidermidis ATCC 35984 assessed as modification of bacterial surface protein pattern at 8 uM by zymographic analysis; format: functional, organism-based
[16] = Ratio of MIC for Staphylococcus aureus ATCC 6538P to MIC for Staphylococcus epidermidis ATCC 35984; format: functional

| Structure (SMILES) | Activity [1] | MIC (Staphylococcus aureus [2]) | MIC [3] | MBC [4] | EC50 (Staphylococcus aureus [5]) | Activity (Staphylococcus aureus [6]) | Activity (Staphylococcus aureus [7]) | Activity [8] | EC50 [9] | Activity (Staphylococcus aureus [10]) | MBC (Staphylococcus aureus [11]) | Activity [12] | Activity [13] | Activity [14] | Activity [15] | Ratio [16] |
| --- | --- | --- | --- | --- | --- | --- | --- | --- | --- | --- | --- | --- | --- | --- | --- | --- |
| Oc1ccc(-c2cc3ccccc3o2)c(O)c1 | inactive | 55.3 µM (≈ 12.5 µg/mL) | 55.3 µM (≈ 12.5 µg/mL) | 55.3 µM (≈ 12.5 µg/mL) | 8.2 µM | inactive | inactive | inactive | 23.5 µM | inactive | 55.3 µM (≈ 12.5 µg/mL) |  |  |  |  |  |
| COc1ccc2c(c[n+](C)c3c4cc5c(cc4ccc23)OCO5)c1OC [CHELERYTHRINE CHLORIDE] |  | 16.3 µM | 16.3 µM | > 260 µM | 15.2 µM | inactive | inactive | inactive | 8.6 µM | inactive | > 260 µM | inactive |  |  |  |  |
| Oc1cc(O)c2c(c1)O[C@@]1(c3ccc(O)c(O)c3)Oc3cc(O)c4c(c3[C@@H]2[C@H]1O)O[C@H](c1ccc(O)c(O)c1)[C@H](O)C4 [PROANTHOCYANIDIN A2] |  | > 169 µM | > 169 µM | > 169 µM | 6.9 µM | inactive | inactive | inactive | 7.6 µM | inactive | > 169 µM |  | Active | Active |  |  |
| C[n+]1cc2c3c(ccc2c2ccc4cc5c(cc4c21)OCO5)OCO3 [SANGUINARIUM] |  | 34 µM | 8.5 µM | 34 µM | 24.5 µM | inactive | inactive | inactive | 4.4 µM | inactive | 34 µM |  | Active |  | inactive | 4 |
